Measured values: article PMC9645260, “Small-molecule inhibitors of P-Rex guanine-nucleotide exchange factors” (Small GTPases, 2022)
pIC50: −log10 of the molar value. Like-named read-outs stand apart in the source and are kept apart here.

Target: T1, P-Rex1 DHPH domains (Homo sapiens, UniProt Q8TCU6)
T1 construct: 100 nM EE-P-Rex1 DHPH domains (PREX-in1, compounds 2–10 and 30–128); made in house; host or cells: Sf9 cells (baculovirus)
Assay: Liposome-based GEF activity assay, isolated P-Rex1 DHPH domains
Type: biochemical
Details: for remaining activity at 10 µM: 10 µM compound, 100 nM EE-P-Rex1 DHPH domains, 200 nM prenylated EE-Rac1, PREX-in1, compounds 2-10 and 30-128
Procedure: Full-length N-terminally EE-tagged P-Rex1, P-Rex2, the P-Rex1 DH and DHPH domains and the P-Rex2 DH domain were produced in Sf9 cells using baculoviral transduction and were purified using anti-EE beads, as previously described. Briefly, frozen pellets from 500 ml of Sf9 culture infected with P-Rex expressing high-titre baculovirus were resuspended in ice-cold lysis Sf9-cell lysis buffer 2 (1x PBS, 1% Triton X-100, 5 mM EGTA, 1 mM EDTA, 25 mM NaF, 20 mM β-glycerophosphate, 1 mM DTT, 100 µM PMSF, 10 μg/ml each of leupeptin, pepstatin A, aprotinin and antipain) for 5 min and then ultracentrifuged at 118,000 × g for 1 h at 4°C. Supernatants were incubated with pre-washed anti-EE beads for 90 min on ice with end-over-end rotation. Beads were washed 4 times in wash buffer (2x PBS, 0.1% Triton X-100, 1 mM EGTA) and 5 times in elution buffer (1x PBS, 10% glycerol, 1 mM DTT, 1 mM EGTA, 0.01% Na azide), and protein was eluted by incubation with elution buffer containing Ac-EEYMPME peptide as described above. Protein was concentrated in a YM-100 Centricon (Millipore) at 5000 × g at 4°C. Fatty acid-free BSA and glycerol were added to final concentrations of 2 mg/ml and 50%, respectively. Protein concentration and purity were determined by coomassie staining of SDS-PAGE gels. Full-length Tiam1, expressed in and purified from Sf9 cells, was a kind gift from Angeliki Malliri, CRUK Manchester Institute, UK. The ITSN1 DHPH domains and Ect2 DHPH domains, produced in and purified from bacteria, were a kind gift from Kent Rossman, University of North Carolina, Chapel Hill, USA. The DOCK10 DHR2 domain, produced in and purified from bacteria, was a kind gift from Danni Fan, Institute of Cancer Research, London, UK. All small GTPase and GEF proteins were stored in aliquots at −80°C and were snap-frozen in liquid N2 after each use.
Liposome-based GEF activity assays were carried out essentially as described, except that GEFs were incubated with inhibitor compounds prior to the assay. GEFs (full-length P-Rex1, P-Rex2, and Tiam1, P-Rex1 DH and DHPH domains, P-Rex2 DH domain, ITSN1 DHPH domains, ECT2 DHPH domains or DOCK10 DHR2 domain) were diluted in 20 mM HEPES (pH 7.0 at 4°C), 200 mM KCl, 10% ethylene glycerol, 1% betaine, 500 µM EGTA, 0.01% azide. […] The final 10 µl samples contained GTPase, GEF and inhibitor at concentrations as stated, in 20 mM HEPES pH 7.5, 100 mM NaCl, 1 mM MgCl2, 1 mM EGTA, 1 mM DTT, 10 mg/ml fatty acid-free BSA, liposomes consisting of phosphatidylcholine, -serine and -inositol (200 µM each), with or without 10 µM PIP3, 1 µM GTPγS and 80 nM (1 µCi) ^35S-GTPγS. Positive controls contained additionally 2 mM EDTA to induce maximal GTP-loading of the GTPase. Samples were incubated at 30°C for 10 min, and reactions were stopped by the addition of 400 µl ice-cold wash buffer (1x PBS, 1 mM EGTA, 10 mM MgCl2, 1% Triton X-100, 100 µM GTP). Small GTPases were isolated using anti-EE antibody-coupled Sepharose beads or glutathione Sepharose beads, as appropriate, by incubation on ice for 90 min with end-over-end rotation, four washes in ice-cold wash buffer and resuspension of beads in Ultima Gold scintillation fluid (Perkin Elmer). ^35S-GTPγS incorporation was assessed by scintillation counting (Packard 1600TR, Liquid Scintillation Analyser).

T1 sequence (Q8TCU6 49-392 limits assumed): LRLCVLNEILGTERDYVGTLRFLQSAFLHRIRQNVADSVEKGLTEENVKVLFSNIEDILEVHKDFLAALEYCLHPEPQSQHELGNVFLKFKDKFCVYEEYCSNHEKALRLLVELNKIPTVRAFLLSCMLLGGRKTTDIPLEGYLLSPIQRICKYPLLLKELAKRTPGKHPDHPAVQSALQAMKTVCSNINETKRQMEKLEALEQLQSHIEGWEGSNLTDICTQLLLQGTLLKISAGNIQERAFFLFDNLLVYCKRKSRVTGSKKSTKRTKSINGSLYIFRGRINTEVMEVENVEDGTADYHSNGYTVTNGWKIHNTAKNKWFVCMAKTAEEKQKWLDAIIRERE

SMILES | remaining activity at 10 µM [%] | inhibition at 10 µM (100 nM DHPH domains, without PIP3, read-out: inhibition of constitutive Rac-GEF activity of isolated P-Rex1 DHPH domains) [%] | inhibition at 10 µM (Rho-GEF selectivity panel, 200 nM GTPase, read-out: inhibition of P-Rex1 DHPH Rac-GEF activity) [%] | pIC50 (liposome-based GEF assay, 200 nM prenylated EE-Rac2 as substrate, read-out: IC50 of inhibition of P-Rex1 DHPH Rac-GEF activity)
COc1ccc(-c2[nH]nc3c2C(c2ccc(-c4ccc(Cl)cc4)o2)C(C#N)=C(N)O3)cc1 (centres unmarked) [PREX-in1, 6-amino-4-[5-(4-chlorophenyl)-2-furyl]-3-(4-methoxyphenyl)-2,4-dihydropyrano[2,3-c]pyrazole-5-carbonitrile] | 3 | 100 | > 90 | 5.35
CC1CCC(C(C)C)c2nn(C(=O)/C=C\c3ccccc3)c(-c3cccc4ccccc34)c21 (centres unmarked) [#10] | 28 |  |  | 
